Experimental data published in US11214565B2, “Compound, compositions, and methods” (Denali Therapeutics Inc., priority 2015, dated 2022).

Target: LRRK2 G2019S enzyme (Homo sapiens (Human), UniProt Q5S007, G2019S)
Experiment: LRRK2 G2019S TR-FRET biochemical kinase assay (LRRKtide substrate)
Conditions: 5 nM LRRK2, 134 μM ATP, 60 minute reaction, 23° C.
Procedure: LRRK2 G2019S enzyme, Substrate (LRRKtide), ATP, TR-FRET dilution buffer, pLRRKtide antibody, 384-well assay plate, and DMSO.
50 mM Tris pH 7.5, 10 mM MgCl2, 1 mM EGTA, 0.01% Brij-35, 2 mM DTT, 5 nM LRRK2, 134 μM ATP, 60 minute reaction time, 23° C. reaction temperature, and 10 μL total reaction volume.
1×TR-FRET dilution buffer, 10 mM EDTA, 2 nM antibody, 23° C. reaction temperature, and 10 μL total reaction volume.
Compound solutions were prepared by initially diluting to 1 mM with DMSO. 35 μL of reference compound solution, 35 μL of test compound solution, and 35 μL HPE were successively added to the source plate (384-well assay plate, Labcyte). The plates were centrifuged at 2500 rpm for 1 minute and sealed in foil. POD was used to perform a 3.162 fold serial dilution and 100 nL of reference compound solution, test compound solution, HPE and ZPE were transferred to assay plates. The assay plate was centrifuged at 2500 rpm for 1 minute, and sealed with foil.
To perform the enzyme reaction, 5 μL of LRRKtide substrate and kinase mixture in assay buffer was added to all wells of the assay plate. The plate was centrifuged to concentrate the mixture at the bottom of the wells. The assay plate was incubated at 23° C. for 20 minutes. Following incubation, 5 μL of 2×ATP in assay buffer was added to each well, and plates were centrifuged to concentrate the mixture at the bottom of the wells. The plate was incubated at 23° C. for 60 minutes.
To perform the detection of the reaction, EDTA completely mixed in TR-FRET dilution buffer was added to antibody reagent. 10 μL of detection reagent was added to all wells of each well of the assay-plate and the plate was centrifuged to concentrate the mixture at the bottom of the wells. The plate was then incubated at 23° C. for 60 minutes. Plates were read on Perkin Elmer Envision 2104 instrument in TR-FRET mode using a 340 nm excitation filter, 520 nm fluorescence emission filter, and 490 or 495 nm terbium emission filter.
B-2, C2, and D-4 respectively.

LRRK2 G2019S enzyme, sequence (Q5S007 whole entry G2019S): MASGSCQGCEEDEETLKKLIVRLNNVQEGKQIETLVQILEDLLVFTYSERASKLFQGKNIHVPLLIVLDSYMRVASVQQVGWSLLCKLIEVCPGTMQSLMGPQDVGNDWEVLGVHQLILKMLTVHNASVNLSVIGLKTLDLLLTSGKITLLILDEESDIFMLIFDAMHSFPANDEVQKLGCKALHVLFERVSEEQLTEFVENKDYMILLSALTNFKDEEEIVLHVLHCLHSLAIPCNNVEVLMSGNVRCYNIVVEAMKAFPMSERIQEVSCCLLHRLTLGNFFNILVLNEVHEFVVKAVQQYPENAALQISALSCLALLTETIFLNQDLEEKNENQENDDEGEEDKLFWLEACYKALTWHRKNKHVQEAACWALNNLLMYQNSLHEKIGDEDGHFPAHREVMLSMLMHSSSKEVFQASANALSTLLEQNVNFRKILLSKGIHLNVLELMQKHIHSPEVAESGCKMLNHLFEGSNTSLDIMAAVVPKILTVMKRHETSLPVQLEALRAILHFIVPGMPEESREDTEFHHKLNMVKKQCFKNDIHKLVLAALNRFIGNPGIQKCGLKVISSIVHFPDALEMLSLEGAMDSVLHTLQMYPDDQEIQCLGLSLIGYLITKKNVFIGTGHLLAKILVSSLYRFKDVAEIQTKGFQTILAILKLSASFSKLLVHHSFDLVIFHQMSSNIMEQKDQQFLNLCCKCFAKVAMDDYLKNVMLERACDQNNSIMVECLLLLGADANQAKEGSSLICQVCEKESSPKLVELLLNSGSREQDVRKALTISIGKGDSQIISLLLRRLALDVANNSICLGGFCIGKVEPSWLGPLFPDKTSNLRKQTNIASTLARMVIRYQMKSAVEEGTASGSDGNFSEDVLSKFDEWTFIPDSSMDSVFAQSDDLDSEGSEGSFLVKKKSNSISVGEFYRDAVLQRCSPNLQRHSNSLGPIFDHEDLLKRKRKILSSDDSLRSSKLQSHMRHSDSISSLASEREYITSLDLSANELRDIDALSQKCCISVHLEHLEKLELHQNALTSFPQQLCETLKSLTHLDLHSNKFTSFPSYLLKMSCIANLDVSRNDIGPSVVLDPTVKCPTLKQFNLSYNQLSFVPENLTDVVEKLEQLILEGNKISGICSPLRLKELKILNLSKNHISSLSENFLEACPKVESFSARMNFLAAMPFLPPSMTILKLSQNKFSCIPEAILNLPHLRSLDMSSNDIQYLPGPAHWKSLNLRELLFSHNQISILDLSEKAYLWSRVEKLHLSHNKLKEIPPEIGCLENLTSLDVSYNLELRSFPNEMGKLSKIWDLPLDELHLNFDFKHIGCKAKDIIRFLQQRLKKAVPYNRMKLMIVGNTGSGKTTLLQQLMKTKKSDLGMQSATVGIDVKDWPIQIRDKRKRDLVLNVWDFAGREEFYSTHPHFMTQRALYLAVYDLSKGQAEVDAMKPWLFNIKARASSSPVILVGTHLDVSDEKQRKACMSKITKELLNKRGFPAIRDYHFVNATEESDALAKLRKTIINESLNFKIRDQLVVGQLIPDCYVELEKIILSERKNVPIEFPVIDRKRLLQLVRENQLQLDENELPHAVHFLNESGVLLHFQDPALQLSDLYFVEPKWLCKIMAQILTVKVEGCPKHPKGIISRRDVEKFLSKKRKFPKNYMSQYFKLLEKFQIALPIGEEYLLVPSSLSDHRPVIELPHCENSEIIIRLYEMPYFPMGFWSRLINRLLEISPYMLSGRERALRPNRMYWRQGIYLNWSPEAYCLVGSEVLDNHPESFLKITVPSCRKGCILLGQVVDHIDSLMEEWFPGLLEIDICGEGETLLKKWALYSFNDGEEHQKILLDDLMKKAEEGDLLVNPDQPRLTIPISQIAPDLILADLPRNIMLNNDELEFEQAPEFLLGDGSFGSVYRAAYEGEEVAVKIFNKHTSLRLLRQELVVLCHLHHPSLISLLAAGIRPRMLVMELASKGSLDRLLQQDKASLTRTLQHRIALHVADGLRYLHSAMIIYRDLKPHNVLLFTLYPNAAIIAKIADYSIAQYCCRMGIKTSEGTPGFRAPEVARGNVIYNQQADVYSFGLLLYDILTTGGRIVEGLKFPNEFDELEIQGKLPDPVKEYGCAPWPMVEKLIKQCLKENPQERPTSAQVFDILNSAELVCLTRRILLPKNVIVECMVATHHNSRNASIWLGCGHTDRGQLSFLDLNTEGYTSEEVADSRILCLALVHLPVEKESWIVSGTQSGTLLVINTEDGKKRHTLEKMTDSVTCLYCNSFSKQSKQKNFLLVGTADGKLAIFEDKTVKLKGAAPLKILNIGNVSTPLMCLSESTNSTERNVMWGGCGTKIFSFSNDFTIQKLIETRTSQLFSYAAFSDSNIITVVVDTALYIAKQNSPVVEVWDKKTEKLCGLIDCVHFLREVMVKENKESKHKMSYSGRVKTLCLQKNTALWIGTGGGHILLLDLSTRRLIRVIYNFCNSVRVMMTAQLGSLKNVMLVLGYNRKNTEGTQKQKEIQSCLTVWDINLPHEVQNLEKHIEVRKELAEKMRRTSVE

Compound	IC50 (Table D-4)	also measured
Cc1nn(C(C)(C)C#N)cc1Nc1nc(C2CC2)c2c(C#N)c[nH]c2n1 [Compound C-10, 2-[[1-(1-cyano-1-methyl-ethyl)-3-methyl-pyrazol-4-yl]amino]-4-cyclopropyl-7H-pyrrolo[2,3-d]pyrimidine-5-carbonitrile]		IC50 (Table C-2): < 50 nM
CCNc1nc(Nc2cnn([C@H]3C[C@H](n4cc(F)cn4)C3)c2C)ncc1C(F)(F)F [Compound D-88]	< 30 nM	
CCn1cnc(C(C)(C)n2cc(Nc3ncc(C(F)(F)F)c(C4CC4)n3)c(C)n2)n1 [Compound A-51, 4-cyclopropyl-N-(1-(2-(1-ethyl-1H-1,2,4-triazol-3-yl)propan-2-yl)-3-methyl-1H-pyrazol-4-yl)-5-(trifluoromethyl)pyrimidin-2-amine]		IC50 (Table A-2): < 30 nM
Cc1nn(C(C)(C)c2ncn(C)n2)cc1Nc1nc(C2CC2)c2c(F)c[nH]c2n1 [Compound C-29]		IC50 (Table C-2): < 50 nM
Cn1cnc(C(C)(C)n2cc(Nc3ncc(C(F)(F)F)c(C4CC4)n3)c(Cl)n2)n1 [Compound A-36, N-(3-chloro-1-(2-(1-methyl-1H-1,2,4-triazol-3-yl)propan-2-yl)-1H-pyrazol-4-yl)-4-cyclopropyl-5-(trifluoromethyl)pyrimidin-2-amine]		IC50 (Table A-2): < 30 nM
Cc1nn(C(C)(C)c2ncn(C)n2)cc1Nc1nc(C2CC2)c2cc[nH]c2n1 [Compound C-27]		IC50 (Table C-2): < 50 nM
CCNc1nc(Nc2cn(C3CCCn4ccnc43)nc2C)ncc1C(F)(F)F [Compound D-92]	30 to 60 nM	
CCNc1nc(Nc2cnn(C3CCn4nccc43)c2C)ncc1C(F)(F)F [Compound D-65]	< 30 nM	
CNc1nc(Nc2cnn(C3CCn4cncc43)c2C)ncc1C(F)(F)F [Compound D-150]	< 30 nM	
CNc1nc(Nc2cnn([C@@H]3CCC(n4nccn4)C3)c2C)ncc1C(F)(F)F (stereo partly drawn) [Compounds D-133]	< 30 nM	
CNc1nc(Nc2cnn(C3CCc4nnc(C)n4C3)c2C)ncc1C(F)(F)F [Compound D-7, N4-methyl-N2-[5-methyl-1-(3-methyl-5,6,7,8-tetrahydro-[1,2,4]triazolo[4,3-a]pyridin-6-yl)pyrazol-4-yl]-5-(trifluoromethyl)pyrimidine-2,4-diamine]	< 30 nM	
CCNc1nc(Nc2cn([C@H]3C[C@@H](c4cocn4)C3)nc2C)ncc1C(F)(F)F [Compound D-113]	< 30 nM	
CCNc1nc(Nc2cnn([C@H]3C[C@H](n4nccn4)C3)c2C)ncc1Cl [Compound D-154]	< 30 nM	
CNc1nc(Nc2cnn(C3CCn4ccnc43)c2C)ncc1C(F)(F)F [Compound D-2, N2-[1-(6,7-dihydro-5H-pyrrolo[1,2-a]imidazol-7-yl)-5-methyl-pyrazol-4-yl]-N4-methyl-5-(trifluoromethyl)pyrimidine-2,4-diamine]	< 30 nM	
Cc1nc2c(C3CC3)nc(Nc3cnn(C)c3C)nc2[nH]1 [Compound C-33]		IC50 (Table C-2): > 100 nM
CC(=O)N1CCC(n2cc(Nc3ncc(C(F)(F)F)c(C4CC4)n3)c(C)n2)CC1 [Compound A-21, 1-[4-[4-[[4-cyclopropyl-5-(trifluoromethyl)pyrimidin-2-yl]amino]-3-methyl-pyrazol-1-yl]-1-piperidyl]ethanone]		IC50 (Table A-2): 30 to 60 nM
CCNc1nc(Nc2cn([C@H]3CCn4nccc43)nc2C)ncc1C(F)(F)F [Compounds D-122]	< 30 nM	
CCNc1nc(Nc2cnn([C@H]3C[C@H](n4cncn4)C3)c2C)ncc1C(F)(F)F [Compound D-117]	< 30 nM	
Cc1nn(C(C)(C)c2ccn(C)n2)cc1Nc1nc(C2CC2)c2nc[nH]c2n1 [Compound C-37]		IC50 (Table C-2): < 50 nM
Cc1nn(C(C)(C)C#N)cc1Nc1ncc(C(F)(F)F)c(C2CC2)n1 [Compound A-1, 2-[4-[(5-trifluoromethyl-4-cyclopropyl-pyrimidin-2-yl)amino]-3-methyl-pyrazol-1-yl]-2-methyl-propanenitrile]		IC50 (Table A-2): < 30 nM
CCNc1nc(Nc2cnn([C@H]3C[C@@H](n4cncn4)C3)c2C)ncc1C(F)(F)F [Compound D-59]	< 30 nM	
Cc1nn([C@H]2CCn3cnnc32)cc1Nc1ncc(C(F)(F)F)c(C2CC2)n1 (single isomer, unassigned) [Compound A-83]		IC50 (Table A-2): < 30 nM
CCNc1nc(Nc2cnn([C@H]3CCc4c(C)noc43)c2C)ncc1C(F)(F)F [Compounds D-171]	< 30 nM	

Compound	IC50 (Table D-4)	also measured
CCNc1nc(Nc2cn([C@H]3Cc4nccn4C3)nc2C)ncc1C(F)(F)F [Compounds D-163]	< 30 nM	
CCNc1nc(Nc2cn(C(F)(F)C(N)=O)nc2C)ncc1C(F)(F)F [Compound D-101]	< 30 nM	
Cc1c(Nc2ncc(C(F)(F)F)c(NCC(F)F)n2)cnn1[C@H]1C[C@H](n2cccn2)C1 [Compound D-87]	< 30 nM	
CNc1nc(Nc2cnn(CC3(CC#N)CC3)c2C)ncc1C(F)(F)F [Compound D-157a]	< 30 nM	
CCNc1nc(Nc2cnn([C@H]3C[C@H](n4ncnc4C(F)(F)F)C3)c2C)ncc1C(F)(F)F [Compound D-61]	< 30 nM	
Cn1ccc(Nc2cc(C3CC3)c3c(C#N)c[nH]c3n2)n1 [Compound C-21, 4-cyclopropyl-6-((1-methyl-1H-pyrazol-3-yl)amino)-1H-pyrrolo[2,3-b]pyridine-3-carbonitrile]		IC50 (Table C-2): < 50 nM
CCNc1nc(Nc2cn(C(C#N)(CF)CF)nc2C)ncc1C(F)(F)F [Compound D-204]	< 30 nM	
FC(F)(F)c1cnc(Nc2cnn(CC3(CN4CCOCC4)CC3)c2Cl)nc1C1CC1 [Compound A-63, N-[5-chloro-1-[[1-(morpholinomethyl)cyclopropyl]methyl]pyrazol-4-yl]-4-cyclopropyl-5-(trifluoromethyl)pyrimidin-2-amine]		IC50 (Table A-2): 30 to 60 nM
CNc1nc(Nc2cnn([C@H]3C[C@H](n4cccn4)C3)c2C)ncc1C(F)(F)F [Compound D-71]	< 30 nM	
Cc1nn(CCF)cc1Nc1ncc(C(F)(F)F)c(C2CC2)n1 [Compound A-31, 4-cyclopropyl-N-(1-(2-fluoroethyl)-3-methyl-1H-pyrazol-4-yl)-5-(trifluoromethyl)pyrimidin-2-amine]		IC50 (Table A-2): < 30 nM
CNc1nc(Nc2cnn([C@@H]3CCn4cncc43)c2C)ncc1C(F)(F)F [Compounds D-121]	< 30 nM	
Cc1c(Nc2ncc(C(F)(F)F)c(C3CC3)n2)cnn1[C@H]1CCNC1=O [Compounds A-91]		IC50 (Table A-2): 30 to 60 nM
CNc1nc(Nc2cnn(C(C)COC(F)F)c2C)ncc1C(F)(F)F [Compound D-48, N2-[1-[2-(difluoromethoxy)-1-methyl-ethyl]-5-methyl-pyrazol-4-yl]-5-(difluoromethyl-fluoranyl)-N4-methyl-pyrimidine-2,4-diamine]	< 30 nM	
CNc1nc(Nc2cnn([C@H]3CCn4cncc43)c2C)ncc1C(F)(F)F [Compounds D-166]	< 30 nM	
COc1nc(Nc2cn(C(F)(F)C(N)=O)nc2C)ncc1Br [Compound D-183]	< 30 nM	
COc1nc(Nc2cn(C(C)(C)C#N)nc2C)nc2[nH]cc(C3CC3)c12 [Compound B-13, 2-[4-[(5-cyclopropyl-4-methoxy-7H-pyrrolo[2,3-d]pyrimidin-2-yl)amino]-3-methyl-pyrazol-1-yl]-2-methyl-propanenitrile]		IC50 (Table B-2): 2 to 20 nM
Cc1c(Nc2nc(C3CC3)c3nc[nH]c3n2)cnn1CC1CC1 [Compound C-7, 6-cyclopropyl-N-(1-(cyclopropylmethyl)-5-methyl-1H-pyrazol-4-yl)-9H-purin-2-amine]		IC50 (Table C-2): < 50 nM
CCN1CC(n2ncc(Nc3ncc(C(F)(F)F)c(C4CC4)n3)c2C)CCC1=O (single isomer, unassigned) [Compound A-59]		IC50 (Table A-2): < 30 nM
CNc1nc(Nc2cn(C3CCn4cncc43)nc2C)ncc1C(F)(F)F [Compound D-67]	> 60 nM	
CNc1nc(Nc2cn(C3(C)CCn4ccnc43)nc2C)ncc1C(F)(F)F [Compounds D-189]	< 30 nM	
Cc1c(Nc2nc(C3CC3)c3nc[nH]c3n2)cnn1C [Compound C-5, 6-cyclopropyl-N-(1,5-dimethylpyrazol-4-yl)-9H-purin-2-amine]		IC50 (Table C-2): < 50 nM
CCNc1nc(Nc2cnn([C@H]3C[C@@H](n4ccnn4)C3)c2C)ncc1C(F)(F)F [Compound D-123]	< 30 nM	
CC(C)(O)Cn1ncc(Nc2ncc(C(F)(F)F)c(C3CC3)n2)c1Cl [Compound A-57, 1-[5-chloro-4-[[4-cyclopropyl-5-(trifluoromethyl)pyrimidin-2-yl]amino]pyrazol-1-yl]-2-methyl-propan-2-ol]		IC50 (Table A-2): > 60 nM
